Values of other authors, collected in patent US20160220684A1, “COMPOSITION AND METHOD FOR RELIEVING PAIN AND INFLAMMATION, TREATMENT OF ERECTILE DYSFUNCTION, AND TREATMENT OF ACNE” (priority 2014, published 2016).

System: intractable pain
Details: patients with metastatic cancer refractory to opioids; article published May 28, 2015

Structure (SMILES): O=C(c1ccccc1)c1ccc2n1CCC2C(=O)O (racemic) [keterolac, (±)-5-benzoyl-2,3-dihydro-1H-pyrrolizine-1-carboxylic acid, compounded with 2-amino-2-(hydroxymethyl)-1,3-propanediol]
- analgesic effectiveness in intractable pain: only effective non-opiod analgesic
